Data: ChEMBL document CHEMBL5385887, “Discovery of Sibiriline derivatives as novel receptor-interacting protein kinase 1 inhibitors” (Eur J Med Chem, 2023)
Active and inactive are the calls of the source. The rule behind the calls is not given here.

Columns and labels:
Mus musculus [1] = assay: (§1) In vivo anti-necroptotic effect in TNFalpha-induced systemic inflammatory response syndrome C57BL/6J mouse model assessed as reduction in hypothermic injury by measuring increase in survival at 10 mg/kg, ip followed by compound treatment after 1 hr injected moue TNFalpha and measured continuously upto 72 hrs; type: functional; conditions: time 73 hrs
[2] = Cytotoxicity against mouse L929 cells by CCK-8 assay; type: toxicity, cell-based
U-937 = assay: Anti-necroptosis activity against TSZ-induced human U937 cell necroptosis model assessed as cell viability pretreated with compound for 1 hr followed by treated with TSZ for 12 hrs; type: functional, cell-based; conditions: dose 0.039-10 µM, time 13.0 hrs
[3] = molecular target: T1, Receptor-interacting serine/threonine-protein kinase 1 (Homo sapiens, UniProt Q13546); assay: Inhibition of RIPK1 (unknown origin) using MBP substrate incubated for 2 hrs by ADP-Glo kinase function assay
T1 sequence (Q13546 whole entry): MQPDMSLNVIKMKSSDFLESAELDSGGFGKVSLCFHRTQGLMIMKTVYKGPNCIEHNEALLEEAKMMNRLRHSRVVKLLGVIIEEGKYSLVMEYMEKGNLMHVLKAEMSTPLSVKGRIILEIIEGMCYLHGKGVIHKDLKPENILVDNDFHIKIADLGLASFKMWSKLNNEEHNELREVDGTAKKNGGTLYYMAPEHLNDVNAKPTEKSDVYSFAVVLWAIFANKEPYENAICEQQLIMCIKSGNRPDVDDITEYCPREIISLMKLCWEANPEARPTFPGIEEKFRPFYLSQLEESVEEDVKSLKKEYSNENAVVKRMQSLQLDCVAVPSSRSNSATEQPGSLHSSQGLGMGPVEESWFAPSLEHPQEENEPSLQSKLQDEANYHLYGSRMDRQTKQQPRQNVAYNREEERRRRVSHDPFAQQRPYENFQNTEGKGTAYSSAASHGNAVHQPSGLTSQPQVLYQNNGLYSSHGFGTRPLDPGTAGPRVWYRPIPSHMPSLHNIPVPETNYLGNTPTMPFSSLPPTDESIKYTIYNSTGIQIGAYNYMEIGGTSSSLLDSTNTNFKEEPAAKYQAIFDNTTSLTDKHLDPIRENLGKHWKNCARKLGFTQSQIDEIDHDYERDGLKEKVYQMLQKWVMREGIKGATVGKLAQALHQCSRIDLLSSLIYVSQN

L929 [4] = assay: Anti-necroptosis activity against TNFalpha/z-VAD-fmk-induced mouse L929 cell necroptosis model assessed as increase in viable cells pretreated with compound for 1 hr followed by treated with TZ for 6 hrs by Hoechst 33342/PI staining based flow cytometric analysis; type: functional; conditions: time 7.0 hrs
[5] = molecular target: T2, Mixed lineage kinase domain-like protein (Mus musculus) (UniProt Q9D2Y4); assay: Inhibition of MLKL phosphorylation in mouse L929 cells at 250 nM incubated for 0.5 to 2.5 hrs by Western blotting analysis; type: cell-based; conditions: time 0.5-2.5 hrs
T2 sequence (whole entry): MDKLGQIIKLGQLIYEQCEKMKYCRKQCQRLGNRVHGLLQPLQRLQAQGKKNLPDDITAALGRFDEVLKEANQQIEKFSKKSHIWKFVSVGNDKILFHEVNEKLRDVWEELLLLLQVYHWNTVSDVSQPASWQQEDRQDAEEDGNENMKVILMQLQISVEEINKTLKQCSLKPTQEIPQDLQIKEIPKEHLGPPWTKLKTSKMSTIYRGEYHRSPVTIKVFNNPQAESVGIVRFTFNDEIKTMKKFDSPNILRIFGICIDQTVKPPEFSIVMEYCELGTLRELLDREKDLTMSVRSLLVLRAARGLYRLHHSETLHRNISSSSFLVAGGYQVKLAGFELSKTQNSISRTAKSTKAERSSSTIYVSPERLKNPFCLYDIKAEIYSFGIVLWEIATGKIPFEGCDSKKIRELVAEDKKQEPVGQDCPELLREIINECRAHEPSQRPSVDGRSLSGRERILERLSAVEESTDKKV

L929 [6] = assay: Anti-necroptosis activity against TNFalpha/z-VAD-fmk-induced mouse L929 cell necroptosis model assessed as prevention of necroptosis pretreated with compound for 1 hr followed by treated with TZ for 6 hrs by Hoechst 33342/PI staining based flow cytometric analysis; type: functional; conditions: dose 10-250 nmol/L, time 7.0 hrs
Mus musculus [7] = assay: as §1, with “25” for “10”; type: functional; conditions: time 73 hrs
HT-29 [8] = assay: Anti-necroptosis activity against TS-induced human HT-29 cell necroptosis model assessed as cell viability at 0.039 to 10 uM pretreated with compound for 1 hr followed by treated with TS for 12 hrs; type: functional, cell-based; conditions: dose 0.039-10 µM
[9] = molecular target: T3, Receptor-interacting serine/threonine-protein kinase 1 (Mus musculus) (UniProt Q60855); assay: Inhibition of RIPK1 phosphorylation in mouse L929 cells at 250 nM by Western blotting analysis; type: cell-based; conditions: time 0.5-2.5 hrs, TDE = time-dependent effect
T3 sequence (whole entry): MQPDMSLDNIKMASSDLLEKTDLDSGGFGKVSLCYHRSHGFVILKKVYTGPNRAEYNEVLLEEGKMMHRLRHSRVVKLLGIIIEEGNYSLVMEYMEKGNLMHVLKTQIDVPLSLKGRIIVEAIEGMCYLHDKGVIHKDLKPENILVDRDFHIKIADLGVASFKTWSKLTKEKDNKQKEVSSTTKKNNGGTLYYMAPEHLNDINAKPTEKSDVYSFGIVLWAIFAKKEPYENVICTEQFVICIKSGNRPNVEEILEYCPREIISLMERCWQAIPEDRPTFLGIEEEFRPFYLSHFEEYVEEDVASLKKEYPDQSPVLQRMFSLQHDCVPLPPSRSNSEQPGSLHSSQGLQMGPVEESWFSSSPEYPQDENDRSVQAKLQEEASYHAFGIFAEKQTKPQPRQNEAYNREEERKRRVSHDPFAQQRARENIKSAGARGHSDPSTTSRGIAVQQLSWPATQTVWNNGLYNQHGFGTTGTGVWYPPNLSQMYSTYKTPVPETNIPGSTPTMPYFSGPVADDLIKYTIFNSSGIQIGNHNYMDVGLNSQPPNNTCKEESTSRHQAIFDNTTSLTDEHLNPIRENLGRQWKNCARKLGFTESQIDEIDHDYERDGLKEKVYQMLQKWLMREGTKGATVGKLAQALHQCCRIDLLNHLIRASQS

[10] = molecular target: Receptor-interacting serine/threonine-protein kinase 3 (Mus musculus) (UniProt Q9QZL0); assay: Inhibition of RIPK3 phosphorylation in mouse L929 cells at 250 nM by Western blotting analysis; type: cell-based; conditions: time 0.5-2.5 hrs, TDE = time-dependent effect
Chain of Receptor-interacting serine/threonine-protein kinase 3 (Mus musculus) (Q9QZL0 whole entry): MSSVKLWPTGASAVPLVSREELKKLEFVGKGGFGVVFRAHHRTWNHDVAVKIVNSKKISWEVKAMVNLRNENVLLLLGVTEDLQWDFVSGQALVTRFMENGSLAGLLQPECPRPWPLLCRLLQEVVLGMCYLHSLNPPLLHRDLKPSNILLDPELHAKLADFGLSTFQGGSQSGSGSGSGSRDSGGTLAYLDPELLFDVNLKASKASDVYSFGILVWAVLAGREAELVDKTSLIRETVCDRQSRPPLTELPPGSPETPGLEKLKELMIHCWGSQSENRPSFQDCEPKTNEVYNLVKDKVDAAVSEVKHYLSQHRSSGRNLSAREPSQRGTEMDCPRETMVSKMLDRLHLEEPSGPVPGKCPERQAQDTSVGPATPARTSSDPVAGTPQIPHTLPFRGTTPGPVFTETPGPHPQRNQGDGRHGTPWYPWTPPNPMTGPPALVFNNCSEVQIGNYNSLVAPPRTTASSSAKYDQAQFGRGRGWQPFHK

L929 [11] = assay: Anti-necroptosis activity against TNFalpha/z-VAD-fmk-induced mouse L929 cell necroptosis model assessed as cell viability pretreated with compound for 1 hr followed by treated with TZ for 6 hrs; type: functional, cell-based
Mus musculus [12] = assay: as §1, with “40” for “10”; type: functional; conditions: time 73 hrs
Mus musculus [13] = assay: In vivo anti-necroptotic effect in TNFalpha-induced systemic inflammatory response syndrome C57BL/6J mouse model assessed as reduction in hypothermic injury at 10 to 40 mg/kg, ip followed by compound treatment after 1 hr injected moue TNFalpha and measured continuously upto 72 hrs; type: functional, organism-based; conditions: dose 10-40 mg/kg, time 73.0 hrs
HT-29 [14] = assay: Anti-necroptosis activity against TSZ-induced human HT-29 cell necroptosis model assessed as cell viability pretreated with compound for 1 hr followed by treated with TSZ for 12 hrs; type: functional, cell-based; conditions: dose 0.039-10 µM, time 13.0 hrs

O=C(c1ccc(-c2cc3cccnc3[nH]2)cc1)N1CCOCC1
survival at 10 mg/kg (Mus musculus [1]): 75% | CC50 [2]: > 50000 nM | Activity (U-937): Dose-Dependent Effect | IC50 [3]: 88 nM | Activity (L929 [4]): Active | inhibition [5]: Active | Activity (L929 [6]): Dose-Dependent Effect | survival at 25 mg/kg (Mus musculus [7]): 100% | Activity (HT-29 [8]): inactive | inhibition [9]: Tde | inhibition [10]: Tde | EC50 (L929 [11]): 56 nM | survival at 40 mg/kg (Mus musculus [12]): 100% | Activity (Mus musculus [13]): Active | Activity (HT-29 [14]): Dose-Dependent Effect
